Patent US10010077B2, “Ginkgo derived compositions and their use to prevent fruit infestation by codling moth” (Missouri State University, priority 2012, dated 2018)
Marks after values point to notes of the source that are not given here.

Tests used:
mammals = settings: cited from earlier work
codling moth neonates = assay: apple plug choice feeding bioassay with codling moth neonates; type: in vivo, Cydia pomonella; parameters: key to Deterrence index: (1 − treated feeders / control feeders) × 100; settings: for concentration at which feeding deterrent effects were found / feeding deterrent properties against codling moth neonates: Fisher exact test; for feeding deterrent properties against codling moth neonates: all concentrations tested
Experimental: Codling moth pupae were obtained from USDA-ARS Yakima Agricultural Research Laboratory in Wapato, Wash., USA. These pupae were stored at 25° C., 70-80% relative humidity and 16:8 (L:D). Moths were allowed to oviposit on polypropylene Ziploc bags (S. C. Johnson, Racine, Wis., USA). Neonates were collected 0.5-1.0 h post-hatch and subjected to bioassays immediately.
Bioassays were performed as described in details by Durden et al. (2008). Briefly, apple plugs were formed by forcing a plastic soda straw through a 20 mm thick section of apple containing both epidermis and flesh of the apple. The straw with a plug in it was cut to a length of approximately 15 mm, the plug positioned with the epidermis of the apple protruding 2 mm from the straw and entire assembly was dipped in liquid paraffin wax. Excess wax was removed from the epidermis of the plug using a warm spatula.
Five microliters of either control (dehydration alcohol only) or experimental solution was applied to the epidermis of each apple plug and allowed to dry. Using a small amount of modeling clay, four plugs (two controls, two experimental) were arranged with one control and one experimental plug facing each other at either side of a 60×15 mm polyurethane petri dish. A short piece of glass rod (1.3 mm diameter) was placed between the two pairs of plugs to form a bridge allowing tested codling moth neonate to choose between either control or experimental plug regardless of which direction the larva traveled along the glass rod.
Assays were evaluated after 20 hours to determine which plug was fed upon. Feeding deterrence index was calculated according to Jones (1952) by dividing the number of the neonates feeding on apple plugs treated with […] by the number of the neonates feeding on the plugs treated with dehydration alcohol only, subtracting this figure from 1, and multiplying the result by 100. Further details about this method may be found in Durden et al. (2008) and Durden et al., (2011).
[…] The number of tests per concentration (each test performed with a different neonate) varied between 13 and 93. The null hypothesis that 50% of neonates would choose control plugs and 50% would choose experimental plugs was tested using Fisher's Exact Test (α=0.05).

[1] = concentration of 0.2%; cited from earlier work
[2] = choice test versus fruit treated at 0.01 mg/ml
[3] = choice test versus fruit treated at 0.1 mg/ml
[4] = choice test versus fruit treated at 1 mg/ml
[5] = choice test versus fruit treated at 10 mg/ml
[6] = circa 3 mg/ml, saturated solution
[7] = choice test versus fruit treated at 30 mg/ml

Row | Compound | Deterrence index (codling moth neonates; 0.1 mg/ml) | Number of neonates feeding Treated fruit (codling moth neonates; 0.1 mg/ml) | Deterrence index (codling moth neonates; 1 mg/ml) | Number of neonates feeding Treated fruit (codling moth neonates; 1 mg/ml) | Deterrence index (codling moth neonates; 10 mg/ml) | Number of neonates feeding Treated fruit (codling moth neonates; 10 mg/ml) | Number of neonates feeding Control fruit (codling moth neonates; [3]) | Number of neonates feeding Control fruit (codling moth neonates; [4]) | Number of neonates feeding Control fruit (codling moth neonates; [5]) | feeding deterrent properties against codling moth neonates (codling moth neonates) | other results
1 | CC(C)(C)[C@]1(O)CC2OC(=O)CC23C(=O)OC2OC(=O)[C@H](O)C231 (stereo partly shown) [Bilobalide] | 56.5 | 20* | 50 | 31* | 75 | 8** | 46 | 62 | 32 | – | LD50 (mammals): > 1,000 mg/kg; Deterrence index (codling moth neonates; 0.001 mg/ml): 0; Number of neonates feeding Treated fruit (codling moth neonates; 0.001 mg/ml): 15; Deterrence index (codling moth neonates; 0.01 mg/ml): 23.5; Number of neonates feeding Treated fruit (codling moth neonates; 0.01 mg/ml): 13; concentration at which feeding deterrent effects were found (codling moth neonates): ≥ 0.1 mg/mL; Number of neonates feeding Control fruit (codling moth neonates; choice test versus fruit treated at 0.001 mg/ml): 15; Number of neonates feeding Control fruit (codling moth neonates; [2]): 17; phytotoxicity [1]: not phytotoxic
2 | C[C@@H]1C(=O)O[C@H]2C[C@@]34[C@H]5C[C@@H](C(C)(C)C)[C@]36[C@@H](OC(=O)[C@@H]6O)O[C@@]4(C(=O)O5)[C@]21O [Ginkgolide A] | 7.69 | 12 | 40.4 | 28 | 38.5 | 16 | 13 | 47 | 26 | did not exhibit significant feeding deterrent properties | –
3 | CC1C(=O)OC2C(O)C34C5CC(C(C)(C)C)C36C(OC(=O)C6O)OC4(C(=O)O5)C12O (stereo not shown) [Ginkgolide B] | 12.5 | 14 | 26.1 | 17 | 76.0 | 6*** | 16 | 23 | 25 | – | concentration at which feeding deterrent effects were found (codling moth neonates): 10 mg/mL
4 | COc1cc(-c2oc3cc(O)cc(O)c3c(=O)c2O)ccc1O [Isorhamnetin] | 10.3 | 26 | No deterrence | 43 | – | – | 29 | 28 | – | slight tendency to discourage some percentage of the larvae from infesting the fruit | Deterrence index (codling moth neonates; 0.01 mg/ml): 21.7; Number of neonates feeding Treated fruit (codling moth neonates; 0.01 mg/ml): 18; Number of neonates feeding Control fruit (codling moth neonates; [2]): 23; Number of neonates feeding Control fruit (codling moth neonates; choice test versus fruit treated at circa 3 mg/ml, saturated solution): 28; Deterrence index (codling moth neonates; [6]): 32.1; Number of neonates feeding Treated fruit (codling moth neonates; [6]): 19
5 | O=c1c(O)c(-c2ccc(O)cc2)oc2cc(O)cc(O)c12 [Kaempferol] | No deterrence | 12 | 25 | 24 | No deterrence | 10 | 8 | 32 | 10 | – | Deterrence index (codling moth neonates; 30 mg/ml): No deterrence**; Number of neonates feeding Treated fruit (codling moth neonates; 30 mg/ml): 35; Deterrence index (codling moth neonates; 60 mg/ml): No deterrence*; Number of neonates feeding Treated fruit (codling moth neonates; 60 mg/ml): 17; Number of neonates feeding Control fruit (codling moth neonates; [7]): 9; Number of neonates feeding Control fruit (codling moth neonates; choice test versus fruit treated at 60 mg/ml): 3
6 | O=c1c(O)c(-c2ccc(O)c(O)c2)oc2cc(O)cc(O)c12 [Quercetin] | No deterrence | 14 | No deterrence | 24 | No deterrence | 20 | 10 | 24 | 16 | – | Deterrence index (codling moth neonates; 30 mg/ml): No deterrence**; Number of neonates feeding Treated fruit (codling moth neonates; 30 mg/ml): 21; Number of neonates feeding Control fruit (codling moth neonates; [7]): 4
7 | Ginkgolide C | 11.8 | 15 | 20 | 24 | 10 | 18 | 17 | 30 | 20 | did not exhibit significant feeding deterrent properties | –
